The subject of data set [1] is human breast cancer MCF-7. The data set can be described thus: Growth inhibition of human breast cancer MCF-7 xenografted in nude mice. It is filed as in vivo, BALB/c female nude mice. The settings on record: oiling agent, 100 mg/kg s.c. once, 28 days after administration; for Tumor weight: X ± SD; for Tumor inhibition rate: from tumor weight vs control. The text has this:
Test drugs: fulvestrant, Compounds II and X are dispersed in oil and sterilized to be prepared as oiling agents respectively.
(Xenograft models place foreign cells or tissue in a host animal.)

The nature of another data set: physchem. The conditions noted are these: thermodynamic from solid.
Data set [2] in a line: Body weight of MCF-7 xenografted nude mice. The settings on record: oiling agent, 100 mg/kg s.c. once, 28 days after administration, X ± SD.
Procedure: Experimental animals and grouping thereof, source, germline and strain: BALB/c female nude mice, provided by Laboratory Animal Research Center of Academy of Military Medical Sciences of China (Laboratory animal production license: SCXK (Military) 2007-004), day-old: 35-40 days; body weight: 18-24 g.
Establishment of model and tumor measuring method: human breast cancer MCF-7 cell lines in logarithmic growth phase were prepared into a cell suspension of 5×10^8/mL under sterile condition, with 0.1 mL of which being inoculated to nude mice at their right armpits subcutaneously. Xenografted tumors of nude mice were measured for diameter with vernier caliper, and animals were randomly grouped when the tumors grew to 100-300 mm^3. The administration volume to each of the mice was 0.2 mL/20 g by subcutaneous injection at head and neck region. 28 days after administration, the mice were sacrificed and the tumors were stripped by surgery and weighed.
The nature of data set [3]: Solubility experiments of fulvestrant and ester derivatives in different oils and solvents. The conditions noted are these: thermodynamic from solid.
Source text: (§1) Fulvestrant and ester derivatives of fulvestrant were accurately weighed to an appropriate amount respectively. Their solubilities (in mg/mL) in different oils and solvents were compared according to General Notice in Section 2 of Chinese Pharmacopoeia (2010).
For data set [4] the following is noted: cited from earlier work.
[5] abbreviates: oil or lipid, Solubility in soybean oil.
Setting [6] is: organic solvent or mixture, Solubility in propylene glycol.

≈ marks a conversion by molar mass, not a printed value.

As usually defined, the solubility is how much of the substance goes into solution per volume.

Source text for physchem: as §1

For the compound `CCCCCCCCCCCCCCCC(=O)OC1CCC2C3C(CCCCCCCCC[S+]([O-])CCCC(F)(F)C(F)(F)F)Cc4cc(O)ccc4C3CCC12C` (centres unmarked) [Compound II], the Tumor weight in data set [1] came to 0.426 ± 0.306 g. This compound also returned a Tumor inhibition rate in data set [1] of 64.90%. Also, the solubility in the data set “physchem” (oil or lipid, Solubility in castor oil) was over 100000 µg/mL; in “physchem” (oil or lipid, Solubility in medium-chain oil) it was over 10000 µg/mL; in the data set “physchem” (setting [5]), over 100000 µg/mL; in “physchem” (organic solvent or mixture, Solubility in PEG 400), 2900 µg/mL (≈ 3.43 mM); in “physchem” (setting [6]), 10200 µg/mL (≈ 12.1 mM).
As to `CC(CCC(C(=O)OC1CCC2C3C(CCCCCCCCC[S+]([O-])CCCC(F)(F)C(F)(F)F)Cc4cc(O)ccc4C3CCC12C)C(C)CC(C)(C)C)CC(C)(C)C` (centres unmarked) [Compound IV], the solubility in “physchem” (setting [5]) was 28000 µg/mL (≈ 32.1 mM); in the data set “physchem” (setting [6]), 7100 µg/mL (≈ 8.13 mM).
On the same counts, the results for `CCCCCCCCCCC(=O)OC1CCC2C3C(CCCCCCCCC[S+]([O-])CCCC(F)(F)C(F)(F)F)Cc4cc(O)ccc4C3CCC12C` (centres unmarked) [Compound I] are 255000 µg/mL (≈ 329 mM) and 2900 µg/mL (≈ 3.74 mM).
Consider `CCCCCCCC/C=C/C(=O)OC1CCC2C3C(CCCCCCCCC[S+]([O-])CCCC(F)(F)C(F)(F)F)Cc4cc(O)ccc4C3CCC12C` (centres unmarked) [Compound V], for which the solubility in “physchem” (setting [5]) was determined as 122000 µg/mL (≈ 158 mM); in “physchem” (setting [6]) it was 12200 µg/mL (≈ 15.8 mM).
In the case of `CCCCCCCC/C=C/C(=O)OC1CCC2C3C(CCCCCCCCC[S+]([O-])CCCC(F)(F)C(F)(F)F)Cc4cc(OC(=O)CCC)ccc4C3CCC12C` (centres unmarked) [Compound X], in data set [1], the Tumor weight was found to be 0.402 ± 0.711 g and the Tumor inhibition rate is on record as 65.93%.
Take `CC12CCC3c4ccc(O)cc4CC(CCCCCCCCC[S+]([O-])CCCC(F)(F)C(F)(F)F)C3C1CCC2O` (stereo not drawn) [Fulvestrant, 7-α-[9-(4,4,5,5,5-pentafluoropentylsulfinyl)nonyl]-estra-1,3,5(10)-triene-3,17β-diol]: the Final body weight in data set [2] amounted to 15.800 ± 1.166 g. In addition, the solubility in data set [3] (PEG 400, organic solvent or mixture, Solubility in PEG 400, PEG 400) was determined as 6900 µg/mL (≈ 11.4 mM); in data set [3] (propylene glycol, organic solvent or mixture, Solubility in propylene glycol) it was 10200 µg/mL (≈ 16.8 mM); in data set [3] (soybean oil, oil or lipid, Solubility in soybean oil) it was 5000 µg/mL (≈ 8.24 mM). Besides, the “Solubility in Migloyl 810” value in data set [4] (Migloyl 810, 25° C.) was 3060 µg/mL (≈ 5.04 mM). Also, in data set [4] (Migloyl 812, 25° C.), the “Solubility in Migloyl 812” value is 2720 µg/mL (≈ 4.48 mM). The “Solubility in Span 85” value in data set [4] (Span 85, 25° C.) was 3790 µg/mL (≈ 6.25 mM). Besides, the “Solubility in benzyl alcohol” value in data set [4] (benzyl alcohol, 25° C.) is over 200000 µg/mL. Further, in data set [4] (benzyl benzoate, 25° C.), the “Solubility in benzyl benzoate” value is 6150 µg/mL (≈ 10.1 mM). Further, the “Solubility in castor oil” value in data set [4] (castor oil, 25° C.) was 20000 µg/mL (≈ 33 mM). Besides, the “Solubility in castor oil (reported value)” value in data set [4] (castor oil, * denotes reported value) is reported as 20* mg/mL. In addition, the Solubility in ethanol in data set [4] (ethanol, 25° C.) was over 200000 µg/mL. Moreover, the “Solubility in ethyl oleate” value in data set [4] (ethyl oleate, 25° C.) was 1250 µg/mL (≈ 2.06 mM). The “Solubility in isopropyl myristate” value in data set [4] (isopropyl myristate, 25° C.) was 800 µg/mL (≈ 1.32 mM). Further, the “Solubility in peanut oil” value in data set [4] (peanut oil, 25° C.) is 450 µg/mL (≈ 0.742 mM). Besides, the “Solubility in sesame oil” value in data set [4] (sesame oil, 25° C.) is 580 µg/mL (≈ 0.956 mM). The Solubility in water in data set [4] (water, 25° C.) was 1 µg/mL (≈ 0.00165 mM). The Water solubility entry in data set [4] (water) is on record as “about 10 ng/mL”. The Tumor weight in data set [1] turned out to be 0.392 ± 0.443 g. In data set [1], this compound returned a Tumor inhibition rate of 66.78%.

The values are drawn from patent US20160060288A1, “Ester derivatives of 7-alpha-[9-(4,4,5,5,5-pentafluoropentylsulfinyl)nonyl)-estra-1,3,5(10)-triene-3,17beta-diol having anticancer activity and preparation method thereof” (XI'ANLIBANG PHARMACEUTICAL TECHNOLOGY CO., LTD., priority 2013, published 2016).
